Key:
Zea mays [1] = assay: Toxicity in Zea mays (maize) assessed as plant height relative to untreated control; type: organism-based; settings: in vivo
Zea mays [2] = assay: Toxicity in Zea mays (maize) assessed as reduction in cob size relative to untreated control; type: organism-based; parameters: scale not given: the % may be the effect or the level left; settings: in vivo

| SMILES | Activity (Zea mays [1]) [%] | Activity (Zea mays [2]) [%] |
| --- | --- | --- |
| CC(C)N1C(=O)c2ccccc2NS1(=O)=O [BENTAZON] | 100 |  |
| O=C(O)c1nc(Cl)ccc1Cl [CLOPYRALID] |  | 67 |
| COc1cc(OC)nc(NC(=O)NS(=O)(=O)c2ncccc2C(=O)N(C)C)n1 [NICOSULFURON] | 100 |  |
| COc1nc(C)nc(NC(=O)NS(=O)(=O)c2ccccc2CCC(F)(F)F)n1 [PROSULFURON] | 100 |  |
| COC(=O)c1sccc1S(=O)(=O)NC(=O)Nc1nc(C)nc(OC)n1 [THIFENSULFURON-METHYL] |  | 9 |
